# From patent EP4057003A1, “SELECTIVE SULFATE ANION DETECTION USING GUANYLATED FLUOROPHORES” (Universidad de Castilla la Mancha, priority 2021, dated 2022)
# Legend:
# [1] = Ion recognition: fluorescence change on addition of salts in water
# Description: […] Different concentrations of ions were tested from 0 to 100 µM and steady-state fluorescence (SSF) spectra were acquired. All measurements were performed using 10 mm quartz cuvette (Hellma Analytics).
# (§1) Steady-state fluorescence (SSF) spectra of the samples were recorded employing an FLS920 (Edinburgh Instruments) spectrofluorometer equipped with a MCP-PMT (microchannel plate-photomultiplier tube) detector (R3809 model) and a TCSPC (time-correlated single photon counting) data acquisition card (TCC900 model). A TLC 50 temperature-controlled cuvette holder (Quantum Northwest) was employed for the measurements (temperature was controlled at 296 K, which corresponds to 22.85 °C). A Xe lamp of 450 W was used as the light source for SSF spectra. […]
# Although the fluorescence intensity of guanylated fluorophore (A) was the same for most of the ions, the presence of sulfate anions (added to a concentration of 100 µM) caused -2-fold fluorescence quenching in guanylated fluorophore (A) (at a concentration of 10 µM) (Figure 5a). […] More importantly, for the same titration a gradual fluorescence decrease without any shift in the emission spectra was observed (see Figure 5c).
# Figure 6b collects the fluorescence changes (%) of guanylated fluorophore (A) when successive quantities of 100 µM of anions are added over 5µM solution of A in water.
# [2] = Anion selectivity, fluorescence decrease on addition of anion in water (Figure 6a); conditions: 100 µM anion
# Description: (§2) For ion interaction experiments, an aqueous solution of guanylated fluorophore (A) (10 µM) was titrated with different salt solutions (CaCl2, KCI, NaCl, NaCH3COO, KSCN, Na2CO3, Na2SO3, SDS, Na2HPO4, Na3PO4, AgNO3, MgSO4, CuSO4, and NiSO4). Different concentrations of ions were tested from 0 to 100 µM and steady-state fluorescence (SSF) spectra were acquired. All measurements were performed using 10 mm quartz cuvette (Hellma Analytics).
# The selectivity of guanylated fluorophore (A) was tested with different anions (Figure 6a). […] It is important to emphasize that the selectivity of guanylated fluorophore (A) was tested in water, where the presence of cations like Ca^2+, Ni^2+, K^+, Na^+ or Mg^2+ or anions like HPO4^2- NO^3- and Cl^- normally presented in this media will not affect the final recognition values. To evaluate the selectivity to sulfate anions, additional experiments were conducted on water complex samples containing high concentrations of such ions as interfering.
# [3] = Association constant from fluorescence titration data, Scatchard plot method; assay type: binding
# Description: as §2
# Chem. Commun. (Cambridge, United Kingdom) 2003, 2 (6), 792-793. https://doi.org/10.1039/b300098b)by the following equation (i): [SO4^(2−)] = (1)/(nKa)(1)/([F]0^(n−1))(1−α)/(α^n) [formula] where; α is defined as the ratio between concentration of free fluorophore (e.g. [F] and initial [F]0 fluorophore concentration, e.g. for the guanylated fluorophore (A), and can be determined from the fluorescence difference at any titration stage; n is the stoichiometry to the studied complex Fn(SO4^2-)m.
# The data of figure 5d of example 3 was fitted to equation (i) as shown in: • Figure 7a for the 1:1 complex of guanylated fluorophore (A) and sulfate anion (i.e., (A)(SO4^2-), complex A) • Figure 7b for the a 2:1 complex of guanylated fluorophore (A) and sulfate anion (i.e., (A)2(SO4^2-), complex B)
# [4] = pH titration of aqueous solution, UV-Vis absorption and steady-state fluorescence (pH dependence, pKa); assay type: physicochemical
# Description: For experiments in water, stock solutions (1 mM) of guanylated fluorophore (A) in ethanol were used. All aqueous solutions were prepared by diluting the stock solution in Milli-Q water to the desired concentration and filtered with 0.22 µm filters before use. For the pH titration experiments, aqueous solutions of guanylated fluorophore (A) (10 µM) were titrated by the successive addition of small volumes (in the order of microliters) of HCI and NaOH solutions of different concentrations (0.01-10 M) to an initial volume of 25 mL to minimize changes in the sample volume. UV-Vis absorption, SSF spectra were recorded.
# UV-Vis absorption spectra of guanylated fluorophore (A) were recorded at room temperature using a Cary 100 (Varian) spectrophotometer using a slit width of 0.4 nm and a scan rate of 600 nm/min.
# as §1
structure (smiles),measurement,setting,value
"CC(C)NC(=Nc1ccc2c(c1)Cc1ccccc1-2)NC(C)C [guanylated fluorophore (A), 2-(9H-fluoren-2-yl)-1,3-diisopropylguanidine]",fluorescence changes (%) / emission intensity,[1]; successive additions of 100 µM of anions to 5 µM solution in water (Figure 6b),exclusively decreases when sulfate anions are added
same,fluorescence quenching,"[1]; sulfate anions 100 µM, fluorophore 10 µM, water",-2 fold
same,sensitivity,[2]; HPO4^2-,no sensitivity was found
same,sensitivity,[2]; PO4^3-,no sensitivity was found
same,sensitivity,[2]; SO3^2-,sensitivity was not observed
same,sensitivity,[2]; dodecyl sulfate (SDS),sensitivity was not observed
same,Ka,"[3]; 1:1 complex (A)(SO4^2-), complex A",1.26x10^5
same,Ka,"[3]; 2:1 complex (A)2(SO4^2-), complex B",1.55x10^10
same,pKa,"[4]; aqueous solution (Milli-Q water), water, from absorption spectra at different pH (A / AH^+ equilibrium)",11.1
same,intensity of the fluorescence and the wavelength of emission,"[4]; pH in the range of 5-12, λex 272 nm",only mildly affected
